Source: ChEMBL document CHEMBL1201862, “PubChem BioAssay data set” (2004)
Calls of active or inactive are those of the source.

Assays:
[1] = biological target: T1, RNA-binding protein pos-1 (Caenorhabditis elegans, UniProt G5EF15); assay: inhibitors of POS-1/mex-3 RNA binding, dose response, biochemical, fluorescence polarization (AID 1964);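 further: purified POS-1 fused to maltose binding protein made in E. coli; potency of compounds blocking POS-1 binding to fluorescent RNA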
T1 sequence (G5EF15 whole entry): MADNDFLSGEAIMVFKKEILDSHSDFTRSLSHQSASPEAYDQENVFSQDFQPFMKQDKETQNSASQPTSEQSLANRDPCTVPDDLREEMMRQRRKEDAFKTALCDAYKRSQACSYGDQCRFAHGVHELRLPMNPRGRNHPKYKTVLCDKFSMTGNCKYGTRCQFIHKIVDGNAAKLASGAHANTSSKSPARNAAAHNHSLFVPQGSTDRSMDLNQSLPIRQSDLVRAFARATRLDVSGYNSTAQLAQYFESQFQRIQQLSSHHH

[2] = biological target: T2, Zinc finger protein mex-5 (Caenorhabditis elegans, UniProt Q9XUB2); assay: MEX-5/TCR-2 RNA interaction inhibitors, dose response, biochemical, C. elegans, fluorescence polarization (AID 1960)
T2 sequence (Q9XUB2 whole entry): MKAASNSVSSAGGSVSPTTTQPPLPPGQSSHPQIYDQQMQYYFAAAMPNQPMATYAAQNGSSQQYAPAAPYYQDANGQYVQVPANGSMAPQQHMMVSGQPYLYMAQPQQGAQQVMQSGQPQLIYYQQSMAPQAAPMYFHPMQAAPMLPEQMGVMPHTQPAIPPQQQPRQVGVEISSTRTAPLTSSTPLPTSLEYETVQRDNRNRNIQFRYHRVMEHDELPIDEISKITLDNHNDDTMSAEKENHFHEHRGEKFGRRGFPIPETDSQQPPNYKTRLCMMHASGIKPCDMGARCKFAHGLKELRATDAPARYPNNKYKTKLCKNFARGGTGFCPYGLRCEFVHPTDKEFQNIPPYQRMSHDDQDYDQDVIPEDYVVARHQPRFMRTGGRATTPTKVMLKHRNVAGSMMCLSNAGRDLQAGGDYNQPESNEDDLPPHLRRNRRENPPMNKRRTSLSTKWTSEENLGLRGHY

[3] = biological target: Induced myeloid leukemia cell differentiation protein Mcl-1 (Homo sapiens, UniProt Q07820); assay: MCL1-BIM BH3 interaction inhibitors, dose response, biochemical, fluorescence polarization, BIM-BH3 peptide, 1536-well (AID 2217)
[4] = biological target: Bcl-2-like protein 1 (Homo sapiens, UniProt Q07817); assay: BCL-XL inhibitors, dose response, selectivity assay for MCL1 inhibitor project, biochemical, fluorescence polarization, 1536-well (AID 2218)
Chain of Bcl-2-like protein 1 (Q07817 whole entry): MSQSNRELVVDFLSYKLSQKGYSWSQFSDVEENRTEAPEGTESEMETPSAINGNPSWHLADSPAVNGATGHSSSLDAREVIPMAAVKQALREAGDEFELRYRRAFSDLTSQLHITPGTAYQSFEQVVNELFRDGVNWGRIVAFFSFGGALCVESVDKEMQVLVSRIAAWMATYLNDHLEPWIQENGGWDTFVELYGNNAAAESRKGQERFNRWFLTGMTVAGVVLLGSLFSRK

[5] = biological target: T3, Caspase-3 (Homo sapiens, UniProt P42574); assay: procaspase-3 activators, dose response, biochemical, absorbance (AID 489014)
T3 sequence (P42574 whole entry): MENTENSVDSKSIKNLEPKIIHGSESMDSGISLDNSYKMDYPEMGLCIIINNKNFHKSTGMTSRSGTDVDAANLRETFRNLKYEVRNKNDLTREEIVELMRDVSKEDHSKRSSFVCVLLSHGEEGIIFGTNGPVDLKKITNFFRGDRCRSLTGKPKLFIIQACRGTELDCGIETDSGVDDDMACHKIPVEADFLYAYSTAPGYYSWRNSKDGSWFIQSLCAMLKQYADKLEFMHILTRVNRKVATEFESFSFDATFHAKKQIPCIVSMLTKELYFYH

[6] = Luminescence Cell-Based Dose Retest to Confirm Inhibitors of Cancer Stem Cells. [Related pubchem assays (depositor defined):AID2717, AID2721]; type: functional; details: Homo sapiens
[7] = biological target: Caspase-7 (Homo sapiens, UniProt P55210); assay: procaspase-7 activators, dose response, counter-screen for procaspase-3 activator project, biochemical, absorbance (AID 489013)
[8] = biological target: T4, Heat shock factor protein 1 (Mus musculus, UniProt P38532); assay: inhibition of MG132-induced HSE-luciferase signal, confirmation, cell-based, NIH3T3, luminescence, dose retest (AID 2382); type: functional;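 further: NIH3T3 fibroblasts with HSF1-driven luciferase reporter stressed by proteasome inhibitor MG132; luminescence from HSF1-driven luciferase expression after 8 hours of MG132 stress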
T4 sequence (P38532 whole entry): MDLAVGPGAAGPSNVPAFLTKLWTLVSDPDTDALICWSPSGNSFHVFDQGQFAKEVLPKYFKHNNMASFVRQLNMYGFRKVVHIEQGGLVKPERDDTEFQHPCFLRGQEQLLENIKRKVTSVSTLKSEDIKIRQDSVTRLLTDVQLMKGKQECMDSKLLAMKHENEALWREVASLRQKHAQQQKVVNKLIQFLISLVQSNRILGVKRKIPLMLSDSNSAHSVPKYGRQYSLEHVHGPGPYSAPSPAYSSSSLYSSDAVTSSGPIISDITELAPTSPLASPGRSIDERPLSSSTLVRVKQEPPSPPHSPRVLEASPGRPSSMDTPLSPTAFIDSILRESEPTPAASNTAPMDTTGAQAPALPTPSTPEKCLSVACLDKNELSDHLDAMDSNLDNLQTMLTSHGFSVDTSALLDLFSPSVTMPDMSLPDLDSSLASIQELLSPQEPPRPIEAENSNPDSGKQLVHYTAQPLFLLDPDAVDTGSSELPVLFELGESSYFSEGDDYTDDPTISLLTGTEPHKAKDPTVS

[9] = biological target: Luciferin 4-monooxygenase (Photinus pyralis, UniProt P08659); assay: firefly luciferase enzyme inhibitors, dose response, biochemical, luminescence (AID 1891)
Chain of Luciferin 4-monooxygenase (P08659 whole entry): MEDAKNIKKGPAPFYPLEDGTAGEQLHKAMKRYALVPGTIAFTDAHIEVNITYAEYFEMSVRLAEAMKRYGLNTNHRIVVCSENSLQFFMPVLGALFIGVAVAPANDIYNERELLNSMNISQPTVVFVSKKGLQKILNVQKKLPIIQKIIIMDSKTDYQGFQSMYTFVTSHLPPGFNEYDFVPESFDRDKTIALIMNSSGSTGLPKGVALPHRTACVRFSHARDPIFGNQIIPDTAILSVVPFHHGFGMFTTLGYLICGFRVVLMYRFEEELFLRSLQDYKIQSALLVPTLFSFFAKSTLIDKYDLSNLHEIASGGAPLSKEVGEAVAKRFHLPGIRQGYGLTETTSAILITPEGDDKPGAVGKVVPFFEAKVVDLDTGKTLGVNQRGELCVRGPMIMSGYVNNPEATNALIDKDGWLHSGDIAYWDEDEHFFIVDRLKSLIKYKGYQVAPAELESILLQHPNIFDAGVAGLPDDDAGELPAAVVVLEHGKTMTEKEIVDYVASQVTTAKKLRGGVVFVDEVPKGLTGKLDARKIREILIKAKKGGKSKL

[10] = Luminescence Cell-Based Dose Confirmation HTS to Identify Inhibitors of Platelet Dense Granule Release. [Related pubchem assays: 1663 (Primary HTS), 1678 (Summary of Project)]; type: functional
[11] = biological target: Intestinal-type alkaline phosphatase (Homo sapiens, UniProt P09923); assay: activation of human intestinal alkaline phosphatase – biochemical, dose response (AID 488873); type: functional
Chain of Intestinal-type alkaline phosphatase (Homo sapiens, UniProt P09923) (P09923 whole entry): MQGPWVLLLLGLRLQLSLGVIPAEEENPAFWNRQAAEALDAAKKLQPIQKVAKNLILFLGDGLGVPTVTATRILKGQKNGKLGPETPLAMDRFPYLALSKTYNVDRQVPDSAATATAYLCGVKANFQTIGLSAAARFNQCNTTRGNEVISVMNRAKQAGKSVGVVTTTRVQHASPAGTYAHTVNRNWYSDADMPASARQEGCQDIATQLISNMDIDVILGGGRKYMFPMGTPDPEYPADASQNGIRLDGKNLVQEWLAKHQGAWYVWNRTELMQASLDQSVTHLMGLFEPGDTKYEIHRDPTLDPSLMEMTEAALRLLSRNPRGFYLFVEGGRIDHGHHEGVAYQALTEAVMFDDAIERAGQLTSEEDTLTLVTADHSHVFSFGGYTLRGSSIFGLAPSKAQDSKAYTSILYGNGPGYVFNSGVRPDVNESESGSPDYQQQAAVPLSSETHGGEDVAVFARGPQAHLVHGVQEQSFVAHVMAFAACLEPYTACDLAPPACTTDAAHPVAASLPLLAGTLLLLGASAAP

[12] = biological target: Intestinal-type alkaline phosphatase (Mus musculus, UniProt P24822); assay: PubChem AID 488785; type: functional
Chain of Intestinal-type alkaline phosphatase (Mus musculus, UniProt P24822) (P24822 whole entry): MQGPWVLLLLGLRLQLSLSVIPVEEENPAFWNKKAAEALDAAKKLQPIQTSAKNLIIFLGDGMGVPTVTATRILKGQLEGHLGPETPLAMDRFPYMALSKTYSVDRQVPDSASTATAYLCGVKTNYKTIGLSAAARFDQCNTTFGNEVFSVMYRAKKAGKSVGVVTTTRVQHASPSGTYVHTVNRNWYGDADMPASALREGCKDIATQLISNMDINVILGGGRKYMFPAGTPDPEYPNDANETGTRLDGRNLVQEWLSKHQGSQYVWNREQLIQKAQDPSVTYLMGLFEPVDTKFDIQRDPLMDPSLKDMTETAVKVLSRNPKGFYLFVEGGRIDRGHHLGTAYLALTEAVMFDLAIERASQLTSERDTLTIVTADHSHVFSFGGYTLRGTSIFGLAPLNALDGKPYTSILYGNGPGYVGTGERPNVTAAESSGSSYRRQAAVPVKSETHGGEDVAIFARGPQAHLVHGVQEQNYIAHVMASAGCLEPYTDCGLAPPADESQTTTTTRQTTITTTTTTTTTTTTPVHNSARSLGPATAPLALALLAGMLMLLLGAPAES

[13] = biological target: T5, Alkaline phosphatase, tissue-nonspecific isozyme (Homo sapiens, UniProt P05186); assay: TNAP enzyme inhibition by screening hits, dose response, selectivity assay for mouse IAP inhibitor project, biochemical, human TNAP, uHTS hits (AID 488906); type: functional
T5 sequence (P05186 whole entry): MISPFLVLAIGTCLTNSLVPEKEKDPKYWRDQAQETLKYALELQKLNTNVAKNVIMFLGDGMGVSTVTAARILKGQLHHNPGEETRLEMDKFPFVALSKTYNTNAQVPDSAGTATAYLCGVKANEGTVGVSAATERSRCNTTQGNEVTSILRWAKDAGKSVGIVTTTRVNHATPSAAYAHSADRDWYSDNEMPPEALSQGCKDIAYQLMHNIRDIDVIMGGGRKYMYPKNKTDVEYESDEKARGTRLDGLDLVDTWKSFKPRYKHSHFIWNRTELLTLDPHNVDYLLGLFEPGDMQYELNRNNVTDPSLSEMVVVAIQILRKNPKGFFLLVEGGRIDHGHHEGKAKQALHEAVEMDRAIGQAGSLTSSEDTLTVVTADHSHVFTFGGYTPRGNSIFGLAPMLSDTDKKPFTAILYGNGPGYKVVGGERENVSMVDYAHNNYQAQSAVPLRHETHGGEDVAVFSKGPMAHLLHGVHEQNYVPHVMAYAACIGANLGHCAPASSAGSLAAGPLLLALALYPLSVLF

[14] = THP-1 cell cytotoxicity, dose response, cytotoxicity control for non-replicating M. tuberculosis project (AID 489025); type: functional
[15] = HepG2 cell cytotoxicity, dose response, cytotoxicity control for non-replicating M. tuberculosis project (AID 489018); type: functional; details: Mycobacterium tuberculosis
[16] = cells; type: functional
[17] = Luminescent dose response cell-based high throughput screening assay for inhibitors of the Janus kinase 2 mutant JAK2V617F. [Related pubchem assays: 1446 (Primary screen.), 1521 (Confirmation assay.), 1486 (Counter screen.)]; type: functional
[18] = system: Streptococcus sp. 'group A'; assay: growth inhibition of control SK(-) GAS strain, dose response, counter-screen for streptokinase expression inhibitor project, luminescence, kanamycin, BacTiterGlo, confirmation (AID 1900); type: functional, organism-based
[19] = biological target: T6, Voltage-gated N-type calcium channel alpha-1B subunit/Amyloid beta A4 precursor protein-binding family A member 1 (Homo sapiens, UniProt Q00975+Q02410); type: protein assay
T6 sequence (Q00975 whole entry): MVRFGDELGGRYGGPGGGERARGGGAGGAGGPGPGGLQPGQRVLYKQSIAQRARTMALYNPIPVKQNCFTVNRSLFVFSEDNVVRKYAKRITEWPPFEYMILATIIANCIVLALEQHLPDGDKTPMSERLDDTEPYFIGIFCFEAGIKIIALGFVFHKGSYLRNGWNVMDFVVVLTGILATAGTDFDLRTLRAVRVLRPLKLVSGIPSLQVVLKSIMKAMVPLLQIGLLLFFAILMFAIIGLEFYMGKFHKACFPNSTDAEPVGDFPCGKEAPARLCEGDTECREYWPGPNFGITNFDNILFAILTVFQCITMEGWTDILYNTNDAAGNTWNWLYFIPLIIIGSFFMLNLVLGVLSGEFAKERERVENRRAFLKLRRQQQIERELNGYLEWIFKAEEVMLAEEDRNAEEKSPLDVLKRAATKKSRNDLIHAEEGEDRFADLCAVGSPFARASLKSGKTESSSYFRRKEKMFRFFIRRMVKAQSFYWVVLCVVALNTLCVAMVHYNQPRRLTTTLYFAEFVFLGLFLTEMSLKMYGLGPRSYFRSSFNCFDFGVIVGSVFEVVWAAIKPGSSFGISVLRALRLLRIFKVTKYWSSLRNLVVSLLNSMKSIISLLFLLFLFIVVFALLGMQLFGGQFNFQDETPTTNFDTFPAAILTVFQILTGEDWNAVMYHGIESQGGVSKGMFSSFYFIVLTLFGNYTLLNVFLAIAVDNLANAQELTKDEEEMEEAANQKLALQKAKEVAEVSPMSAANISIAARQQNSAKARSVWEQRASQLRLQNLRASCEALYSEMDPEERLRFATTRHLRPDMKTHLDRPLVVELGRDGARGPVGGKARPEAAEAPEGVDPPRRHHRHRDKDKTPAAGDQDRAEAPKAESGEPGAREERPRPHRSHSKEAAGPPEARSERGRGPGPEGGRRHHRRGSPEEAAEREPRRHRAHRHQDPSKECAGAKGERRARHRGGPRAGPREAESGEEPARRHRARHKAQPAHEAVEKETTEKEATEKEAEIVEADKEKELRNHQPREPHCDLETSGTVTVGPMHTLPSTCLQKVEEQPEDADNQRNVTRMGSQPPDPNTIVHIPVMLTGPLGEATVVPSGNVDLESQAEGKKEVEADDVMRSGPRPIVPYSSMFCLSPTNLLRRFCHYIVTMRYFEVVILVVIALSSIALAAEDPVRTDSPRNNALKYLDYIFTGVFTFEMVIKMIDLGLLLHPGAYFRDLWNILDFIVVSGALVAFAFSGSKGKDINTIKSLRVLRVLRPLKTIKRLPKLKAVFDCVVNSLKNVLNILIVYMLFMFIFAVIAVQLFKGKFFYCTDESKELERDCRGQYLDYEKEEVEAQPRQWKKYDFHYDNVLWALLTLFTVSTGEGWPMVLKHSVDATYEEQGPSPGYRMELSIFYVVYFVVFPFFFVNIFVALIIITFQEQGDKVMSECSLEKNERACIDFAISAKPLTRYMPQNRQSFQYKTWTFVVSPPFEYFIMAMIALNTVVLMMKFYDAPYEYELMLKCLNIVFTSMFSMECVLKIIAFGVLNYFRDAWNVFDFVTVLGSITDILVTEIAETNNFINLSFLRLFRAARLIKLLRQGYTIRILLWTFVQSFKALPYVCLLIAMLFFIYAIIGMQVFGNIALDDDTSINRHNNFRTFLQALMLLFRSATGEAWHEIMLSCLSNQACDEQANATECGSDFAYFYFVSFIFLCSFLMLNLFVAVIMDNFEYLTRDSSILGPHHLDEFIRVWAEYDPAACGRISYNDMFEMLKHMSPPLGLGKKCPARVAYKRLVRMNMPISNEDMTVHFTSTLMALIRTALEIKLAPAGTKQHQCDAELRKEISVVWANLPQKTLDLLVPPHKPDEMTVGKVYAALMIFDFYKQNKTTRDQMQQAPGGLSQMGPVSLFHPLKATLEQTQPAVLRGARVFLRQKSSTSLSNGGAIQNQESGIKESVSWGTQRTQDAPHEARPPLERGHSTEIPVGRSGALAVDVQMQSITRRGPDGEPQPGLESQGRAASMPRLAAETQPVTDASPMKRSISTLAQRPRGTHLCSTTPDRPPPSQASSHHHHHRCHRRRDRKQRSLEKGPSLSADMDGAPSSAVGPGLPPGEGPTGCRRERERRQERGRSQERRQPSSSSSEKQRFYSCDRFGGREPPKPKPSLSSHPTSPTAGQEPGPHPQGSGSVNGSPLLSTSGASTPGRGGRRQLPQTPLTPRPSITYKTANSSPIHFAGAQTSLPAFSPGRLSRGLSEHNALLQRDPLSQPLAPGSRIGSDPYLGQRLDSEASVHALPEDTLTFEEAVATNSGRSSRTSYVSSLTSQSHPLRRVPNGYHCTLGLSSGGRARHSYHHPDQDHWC
T6 sequence (Q02410 whole entry): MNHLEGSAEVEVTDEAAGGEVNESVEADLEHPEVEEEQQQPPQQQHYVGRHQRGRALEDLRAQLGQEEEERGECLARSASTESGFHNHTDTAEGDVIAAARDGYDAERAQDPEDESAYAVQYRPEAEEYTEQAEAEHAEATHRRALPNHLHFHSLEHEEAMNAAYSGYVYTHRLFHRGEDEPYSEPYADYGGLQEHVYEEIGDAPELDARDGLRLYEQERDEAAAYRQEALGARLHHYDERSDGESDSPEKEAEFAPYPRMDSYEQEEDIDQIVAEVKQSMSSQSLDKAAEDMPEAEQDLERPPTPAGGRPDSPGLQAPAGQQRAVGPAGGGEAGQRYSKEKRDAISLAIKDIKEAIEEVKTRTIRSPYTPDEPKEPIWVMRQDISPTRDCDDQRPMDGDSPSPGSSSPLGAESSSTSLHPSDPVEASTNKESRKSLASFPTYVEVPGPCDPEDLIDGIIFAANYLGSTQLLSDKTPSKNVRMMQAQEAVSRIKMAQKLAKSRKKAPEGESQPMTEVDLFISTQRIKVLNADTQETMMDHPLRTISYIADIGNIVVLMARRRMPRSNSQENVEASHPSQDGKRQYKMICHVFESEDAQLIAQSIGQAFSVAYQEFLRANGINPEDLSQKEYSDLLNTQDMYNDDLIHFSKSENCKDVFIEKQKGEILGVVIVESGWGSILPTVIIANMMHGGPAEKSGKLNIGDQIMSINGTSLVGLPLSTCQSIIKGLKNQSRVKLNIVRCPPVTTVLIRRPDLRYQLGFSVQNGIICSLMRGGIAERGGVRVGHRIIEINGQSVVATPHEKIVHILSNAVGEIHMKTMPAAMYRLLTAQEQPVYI

[20] = biological target: T7, Streptokinase A (Streptococcus pyogenes serotype M1, UniProt P10520); assay: S. pyogenes streptokinase expression inhibitors, potency, dose response, plasminogen activation absorbance, OD405 (AID 1914); type: functional, Streptococcus pyogenes M1 GAS;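 further: secreted streptokinase activity via plasminogen activation per viability signal from cell pellet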
T7 sequence (P10520 whole entry): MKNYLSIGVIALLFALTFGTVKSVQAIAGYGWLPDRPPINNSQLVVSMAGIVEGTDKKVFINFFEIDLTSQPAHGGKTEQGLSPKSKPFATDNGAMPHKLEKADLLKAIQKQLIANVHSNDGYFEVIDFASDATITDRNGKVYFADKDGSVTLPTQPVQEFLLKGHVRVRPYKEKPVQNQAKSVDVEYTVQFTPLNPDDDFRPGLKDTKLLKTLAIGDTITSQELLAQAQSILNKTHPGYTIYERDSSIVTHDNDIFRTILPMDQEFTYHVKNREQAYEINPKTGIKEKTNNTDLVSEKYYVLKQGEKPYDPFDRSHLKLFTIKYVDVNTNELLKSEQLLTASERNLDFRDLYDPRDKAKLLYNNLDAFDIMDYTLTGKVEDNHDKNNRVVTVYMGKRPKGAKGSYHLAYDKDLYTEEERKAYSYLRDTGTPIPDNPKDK

[21] = biological target: T6, Voltage-gated N-type calcium channel alpha-1B subunit/Amyloid beta A4 precursor protein-binding family A member 1; type: protein assay; remark: listed apart in the source
[22] = inhibitors of intracellular T. cruzi replication, confirmation, NIH3T3 host cells, beta-gal luminescence (AID 2044); type: functional, cell-based;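 further: intracellular parasites grown in NIH/3T3 mouse fibroblasts as host cells; luminescent beta-galactosidase reporter signal from transgenic T. cruzi replicating inside host cells; inhibitors lower the luminescence signal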
[23] = cytotoxicity toward NIH3T3 fibroblasts, dose response, counter-screen, cell-based, ATP luminescence, mouse fibroblasts (AID 2010); type: functional;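 further: cells exposed to compound for about 90 hours before reading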
[24] = system: Streptococcus; assay: Group A Streptococcus viability loss, dose response, counter-screen for streptokinase expression inhibitor project, luminescence, BacTiterGlo (AID 1915); type: functional, organism-based;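 further: potency for reduction of bacterial viability or growth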
[25] = biological target: Glucose-6-phosphate 1-dehydrogenase (Homo sapiens, UniProt P11413); assay: human G6PD enzyme inhibitors, dose response, selectivity assay for P. falciparum G6PD inhibitor project, biochemical, fluorescence (AID 504792); type: functional
[26] = biological target: Beta-galactosidase (Escherichia coli, UniProt Q8VNN2); assay: beta-galactosidase enzyme inhibitors and activators, dose response, artefact control for CCR6 antagonist project, biochemical, E. coli enzyme, set 3 (AID 504712); type: functional
[27] = system: CHO; assay: cytotoxicity in TLR9-MyD88 CHO cells, dose response, cytotoxicity control for TLR9-MyD88 binding inhibitor project, cell-based, luminescence (AID 588339); type: functional, hamster; details: Cricetulus griseus;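 further: CHO cells stably coexpressing TLR9 and MyD88 fusions from primary screen; compound exposure lasted 48 hours before viability readout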
[28] = biological target: Heat shock protein HSP 90-alpha (Homo sapiens, UniProt P07900); type: functional, organism-based
[29] = biological target: Melanocortin receptor 4 (Homo sapiens, UniProt P32245); assay: MC4R antagonist potency on cAMP, dose response, cell-based, TR-FRET, biased antagonists (AID 602298); type: functional;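 further: antagonist potency against agonist-stimulated cAMP production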
[30] = Shn3 3'UTR reporter inhibitors, dose response, cell-based, Clone20 osteoblasts, firefly luciferase, cherry-picked (AID 624132); type: functional;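 further: firefly luciferase luminescence from reporter carrying the Shn3 3'UTR in osteoblasts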
[31] = HepG2 cell cytotoxicity, dose response, cytotoxicity control for Shn3 inhibitor project, CellTiter-Glo, cherry-picked (AID 624134); type: functional, cell-based
[32] = control 3'UTR Renilla luciferase suppression, dose response, counter-screen for Shn3 inhibitor project, cell-based, Clone20-Shn3RL, cherry-picked (AID 624133); type: functional
[33] = nonselective inhibitors of cellular cAMP signaling, dose response, counter-screen for MC4R biased antagonist project, cell-based, TR-FRET cAMP detection (AID 602305); type: functional;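 further: U2OS cells stimulated with forskolin near its EC80 as the cAMP inducer; potency is for inhibition of forskolin-stimulated cAMP signaling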

Question: Which EC50 [1] does the source give for COC(=O)c1ccccc1NCc1cc(=O)oc2cc(O)c(O)cc12 here?
Answer: 19 µM (inconclusive)

Question: And the EC50 [2]?
Answer: 18.4 µM (inconclusive)

Question: And the IC50 [3]?
Answer: > 4.03 µM (active)

Question: And the IC50 [4]?
Answer: > 109 µM (not active)

Question: And the EC50 [5]?
Answer: > 1.05 µM (active)

Question: And the AC50 [6]?
Answer: 6.97 µM (active)

Question: And the EC50 [7]?
Answer: > 85.2 µM (inactive)

Question: For CN(C)c1ccc(N=Nc2nc3ccccc3n2C)cc1, which EC50 [8] is on record?
Answer: 0.429 µM (inconclusive)

Question: What about the EC50 [9] of the same compound?
Answer: 0.213 µM (active)

Question: And the EC50 [10]?
Answer: 0.208 µM (active)

Question: And the EC50 [11]?
Answer: > 100 µM (inactive)

Question: And the IC50 [12]?
Answer: 27.6 µM (active)

Question: What about the IC50 [13] of the same compound?
Answer: 36.9 µM (active)

Question: For CCOc1ccc(C(=O)Nc2nc3ccccc3[nH]2)cc1OCC, which CC50 [14] is on record?
Answer: > 40 µM (active)

Question: And the CC50 [15]?
Answer: 18.8 µM (active)

Question: What about the IC50 [16] of the same compound?
Answer: 12 µM (active)

Question: With O=C1C=CC(=O)N1CCNc1ncc(C(F)(F)F)cc1Cl as the compound, how does the IC50 [17] read?
Answer: 0.383 µM (active)

Question: And the EC50 [18]?
Answer: 10.4 µM (active)

Question: What about the IC50 [19] of the same compound?
Answer: 12 µM (active)

Question: And the EC50 [20]?
Answer: > 150 µM (not active)

Question: What about the IC50 [21] of the same compound?
Answer: 1.53 µM (active)

Question: What about the EC50 [22] of the same compound?
Answer: 2.78 µM (active)

Question: And the EC50 [23]?
Answer: 3.98 µM (active)

Question: And the EC50 [24]?
Answer: > 150 µM (not active)

Question: And the IC50 [25]?
Answer: > 80 µM (inactive)

Question: And the IC50 [26]?
Answer: > 66.6 µM (inactive)

Question: What about the IC50 [27] of the same compound?
Answer: 1.62 µM (active)

Question: What about the AC50 [28] of the same compound?
Answer: 0.482 µM (active)

Question: What about the IC50 [29] of the same compound?
Answer: 12.3 µM (inactive)

Question: What about the AC50 [30] of the same compound?
Answer: 0.947 µM (active)

Question: And the AC50 [31]?
Answer: 16 µM (active)

Question: What about the AC50 [32] of the same compound?
Answer: 11.9 µM (active)

Question: What about the IC50 [33] of the same compound?
Answer: 15.1 µM (inactive)
